{
  "source": "patent US5760248A",
  "about": "“Tachykinin antagonists” (A.Menarini Industrie Farmaceutiche Riunite S.r.l., priority 1993, dated 1998)",
  "data": [
    {"target": "T1, NK1 receptor (Homo sapiens, UniProt P25103)", "T1 construct": "endogenous in cells; host or cells: IM9 cells (intact)", "T1 sequence (P25103 whole entry)": "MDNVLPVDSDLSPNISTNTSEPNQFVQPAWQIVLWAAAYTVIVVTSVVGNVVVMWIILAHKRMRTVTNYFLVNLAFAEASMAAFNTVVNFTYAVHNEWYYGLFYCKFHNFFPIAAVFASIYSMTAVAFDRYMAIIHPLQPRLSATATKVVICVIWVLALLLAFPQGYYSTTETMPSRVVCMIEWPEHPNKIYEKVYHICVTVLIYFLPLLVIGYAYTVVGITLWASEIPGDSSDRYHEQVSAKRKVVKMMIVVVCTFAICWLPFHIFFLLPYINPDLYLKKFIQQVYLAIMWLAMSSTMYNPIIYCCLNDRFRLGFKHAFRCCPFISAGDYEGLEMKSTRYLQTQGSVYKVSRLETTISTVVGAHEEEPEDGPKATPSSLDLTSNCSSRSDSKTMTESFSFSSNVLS", "assay": "[3H] SP binding assay in IM9 Cell Line (intact cells)", "procedure": "Assessment of biological activity (antagonist activity on NK1 receptor) of compounds of this invention was performed by means of the following binding and functional assays:\n[3H] SP binding assay in IM9 Cell Line\nBinding assay was performed with intact cells as described by Goso et al (Eur.J.Pharmacol. 254,221,1994).", "values": [
      {"smiles": "C[C@@H](C(=O)N(C)[C@H](Cc1ccc2ccccc2c1)NC(=O)C1CCCCC1NC(=O)c1c[nH]c2ccccc12)c1ccccc1", "note": "(stereo partly drawn) [10 (fast), 1-{N-(1(H)indol-3-yl-carbonyl)(1R,2S)-2-aminocyclohexane-carbonyl}-amino-1-(N-methyl-N-((R)2-phenylpropionyl))Ammino-2-(2-naphthyl)ethane]", "pKi (Substance P antagonism Results)": 8.7},
      {"smiles": "Cc1ccc(CC(=O)N(C)[C@H](Cc2ccc3ccccc3c2)NC(=O)C2CCCCC2NC(=O)c2c[nH]c3ccccc23)cc1", "note": "(stereo partly drawn) [12 (fast), 1-{N-(1(H)indol-3-yl-carbonyl)(1R,2S)-2-aminocyclohexanecarbonyl}-amino-1-(N-methyl-N-4-methylphenylacetyl)amino-2(2-naphthyl)ethane]", "pKi (Substance P antagonism Results)": 8.7},
      {"smiles": "C[C@H](C(=O)N(C)[C@H](Cc1ccc2ccccc2c1)NC(=O)C1CCCCC1NC(=O)c1c[nH]c2ccccc12)c1ccccc1", "note": "(stereo partly drawn) [9 (fast), 1-{N-(1(H)indol-3-yl-carbonyl)(1R,2S)-2-aminocyclohexanecarbonyl}-amino-1-(N-methyl-N-((S)2-phenylpropionyl))amino-2-(2-naphthyl)ethane]", "pKi (Substance P antagonism Results)": "< 5"},
      {"smiles": "O=C(NC1CCCCC1C(=O)N[C@H](COCc1cc(C(F)(F)F)cc(C(F)(F)F)c1)Cc1ccc2ccccc2c1)c1c[nH]c2ccccc12", "note": "(stereo partly drawn) [4 (fast)]", "pKi (Substance P antagonism Results)": "< 5"},
      {"smiles": "O=C(NC1CCCCC1C(=O)N[C@@H](Cc1ccccc1)C(=O)OCc1ccccc1)c1c[nH]c2ccccc12", "note": "(stereo partly drawn) [1 (fast)]", "pKi (Substance P antagonism Results)": "< 6"},
      {"smiles": "CN(C(=O)Cc1ccccc1)[C@H](Cc1ccc2ccccc2c1)NC(=O)C1CCCCC1NC(=O)c1c[nH]c2ccccc12", "note": "(stereo partly drawn) [3 (fast), 1-{N-(1(H)indol-3-yl-carbonyl) (1R,2S)-2-aminocyclohexanecarbonyl}-amino-1-(N-methyl-N-phenylacetyl)amino-2(2-naphthyl)ethane]", "pKi (Substance P antagonism Results)": 8.4},
      {"smiles": "O=C(Cc1ccccc1)N[C@H](Cc1ccccc1)NC(=O)C1CCCCC1NC(=O)c1c[nH]c2ccccc12", "note": "(stereo partly drawn) [2 (fast), 1-{N-(1(H)indol-3-yl-carbonyl) (1R,2S)-2-aminocyclohexanecarbonyl}-amino-1-(phenylacetyl)amino-2-phenyl-ethane]", "pKi (Substance P antagonism Results)": "< 6"},
      {"smiles": "CN(C(=O)Cc1ccc(Cl)cc1)[C@H](Cc1ccc2ccccc2c1)NC(=O)C1CCCCC1NC(=O)c1c[nH]c2ccccc12", "note": "(stereo partly drawn) [11 (fast), 1-{N-(1(H)indol-3-yl-carbonyl)(1R,2S)-2-aminocyclohexanecarbonyl}-amino-1-(N-methyl-N-4-chlorophenylacetyl)amino-2(2-naphthyl)ethane]", "pKi (Substance P antagonism Results)": 8.4},
      {"smiles": "CN(C(=O)Cc1ccccc1)[C@H](Cc1ccc2ccccc2c1)NC(=O)C1CCCCC1NC(=O)c1c[nH]c2ccccc12", "note": "(stereo partly drawn) [3 (slow), 1-{N-(1(H)indol-3-yl-carbonyl)(1S,2R)-2-aminocyclohexanecarbonyl}-amino-1-(N-methyl-N-phenylacetyl) amino-2(2-naphthyl)ethane]", "pKi (Substance P antagonism Results)": "< 5"}
    ]}
  ]
}
